Experimental data taken from ChEMBL document CHEMBL3351383, “Combination of chiral linkers with thiophenecarboximidamide heads to improve the selectivity of inhibitors of neuronal nitric oxide synthase” (Bioorg Med Chem Lett, 2014).

Columns and labels:
[1] = Selectivity index, ratio of Ki for bovine eNOS to KI for rat nNOS
[2] = Selectivity index, ratio of Ki for mouse macrophage iNOS to KI for rat nNOS

## N=C(Nc1cccc(OC[C@@H]2C[C@@H](OCc3cccc(F)c3)CN2)c1)c1cccs1
[1]
  Ratio Ki: 18
[2]
  Ratio Ki: 92

## N=C(Nc1cccc(O[C@H]2CN[C@H](COCc3cccc(F)c3)C2)c1)c1cccs1
[1]
  Ratio Ki: 86
[2]
  Ratio Ki: 90

## N=C(Nc1ccc(OC[C@@H]2C[C@@H](Oc3cccc(NC(=N)c4cccs4)c3)CN2)cc1)c1cccs1
[1]
  Ratio Ki: 142
[2]
  Ratio Ki: 163
